Laboratory results from US20240090498A1, “ANTIMICROBIAL COMPOSITIONS” (TAKASAGO INTERNATIONAL CORPORATION, priority 2010, published 2024).

Key:
Assay type in all cases: cell-based
[1] = tested on: Enterococcus faecalis ATCC 29212; test: Vapor phase activity against bacteria (Example 2, growth grading versus control); set-up: key: −: No Activity (growth); +: Slight Activity (some growth, but much less than control); ++: Medium Activity (pinprick growth); +++: High Activity (no growth); details: E.f. 29212; 7.1 or 9.3 mg/L as defined per composition; sealed 7 L box
Description: (§1) Seeded brain heart infusion (BHI) agar plates of Escherichia coli ATCC 10536, Salmonella enterica ATCC13311, Pseudomonas aeruginosa ATCC 15422, Staphylococcus aureus ATCC 6538, Enterococcus faecalis ATCC 29212, and Enterococcus hirae ATCC 10541 were placed in sealed 7 L acrylic boxes and exposed to vapors of the compositions shown below. A control was established in which the agar plates was not treated with vapors. • Composition A: 9.3 mg/L of trans-2-hexenal • Composition B: 9.3 mg/L of trans-2-heptenal • Composition C: 9.3 mg/L of 2, 4-heptadienal • Composition D: 7.1 mg/L of trans-2-hexenal • Composition E: 7.1 mg/L of 2,4-heptadienal • Composition F: 7.1 mg/L of 2,4-heptadienal+citronellol (1:1) • Composition G: 9.3 mg/L of citronellal+citral DMA (1:1) • Composition H: 9.3 mg/L of benzaldehyde+citral DMA (1:1) • Composition I: 9.3 mg/L of furfural+citronellol (1:1) • Composition J: 7.1 mg/L of citral+citronellal (1:1) • Composition K: 7.1 mg/L of trans-2-hexenal+citronellol (1:1)

[2] = tested on: Salmonella enterica ATCC13311; test: as above; set-up: key to the marks not given beside the values; details: S.e. 13311; 7.1 or 9.3 mg/L as defined per composition; sealed 7 L box
Description: as §1

[3] = tested on: Escherichia coli ATCC 10536; test: as above; set-up: key to the marks not given beside the values; details: E.c. 10536; 7.1 or 9.3 mg/L as defined per composition; sealed 7 L box
Description: as §1

[4] = tested on: Staphylococcus aureus ATCC 6538; test: as above; set-up: key to the marks not given beside the values; details: S.a. 6538; 7.1 or 9.3 mg/L as defined per composition; sealed 7 L box
Description: as §1

[5] = tested on: Pseudomonas aeruginosa ATCC 15422; test: as above; details: P.a. 15442; 7.1 or 9.3 mg/L as defined per composition; sealed 7 L box
Description: as §1

[6] = tested on: Enterococcus hirae ATCC 10541; test: as above; details: E.h 10541; 7.1 or 9.3 mg/L as defined per composition; sealed 7 L box
Description: as §1

[7] = tested on: Enterococcus faecalis ATCC 29212; test: Vapor phase MIC / combined FIC on seeded BHI agar plates in sealed 7 L box; details: ATCC29212, 72 h, E. faecalis, no growth after 3 days at room temperature, read-out: MIC alone (single material, vapor phase)
Source text: (§2) Seeded brain heart infusion (BHI) agar plates of Escherichia coli ATCC 10536, Salmonella enterica ATCC13311, Pseudomonas aeruginosa ATCC 15422, Staphylococcus aureus ATCC 6538, Enterococcus faecalis ATCC 29212, and Enterococcus hirae ATCC 10541 were placed in sealed 7 L acrylic boxes and exposed to vapors of trans-2-alkenals (C6 to C11 carbon chain length) and mustard essential oil (MEO) binary combinations.
(§3) The trans-2-alkenals and MEO were weighed neat into a glass jar which was positioned in the box between the seeded agar plates. The concentration of the single materials and binary combinations introduce in the 7 L box were expressed as weight per unit volume of the box (mg/L). Several concentrations ranging from 0.5 mg/L to 43 mg/L of the single materials and combinations were tested for each organism. The vapor phase minimum inhibition concentration (MIC) with “no growth” after 3 days of incubation at room temperature. Fractional Inhibition Concentrations (FIC) was determined to evaluate the antibacterial effect of trans-2-alkenals and MEO combinations in the vapor phase based on the following formula:
(§4) Combined FIC=(MIC of trans-2-alkenalcombination/MIC of trans-2-alkenalalone)+(MIC of MEOcombination/MIC of MEOalone)
(§5) Combined FIC values for trans-2-alkenals and MEO combinations are shown below in Table 1. Combinations with combined FIC equal or less than 0.5 are considered to have a strong synergistic effect.

[8] = tested on: Salmonella enterica ATCC13311; test: as above; details: ATCC13311, 72 h, S. enterica, no growth after 3 days at room temperature, read-out: MIC alone (single material, vapor phase)
Source text: as §2, §3, §4, §5

[9] = tested on: Escherichia coli ATCC 10536; test: as above; details: ATCC10536, 72 h, E. coli, no growth after 3 days at room temperature, read-out: MIC alone (single material, vapor phase)
Source text: as §2, §3, §4, §5

[10] = tested on: Pseudomonas aeruginosa ATCC 15422; test: as above; details: ATCC15422, 72 h, P. aeruginosa, no growth after 3 days at room temperature, read-out: MIC alone (single material, vapor phase)
Source text: as §2, §3, §4, §5

[11] = tested on: Staphylococcus aureus ATCC 6538; test: as above; details: ATCC6538, 72 h, S. aureus, no growth after 3 days at room temperature, read-out: MIC alone (single material, vapor phase)
Source text: as §2, §3, §4, §5

[12] = tested on: Enterococcus hirae ATCC 10541; test: as above; details: ATCC10541, 72 h, E. hirae, no growth after 3 days at room temperature, read-out: MIC alone (single material, vapor phase)
Source text: as §2, §3, §4, §5

[13] = tested on: E.h. 10541; test: MIC in solution; details: Enterococcus hirae
Description: (§6) MIC values were also determined for trans-2 octenal, octanal formulations, and MEO in solution and in the vapor phase.

[14] = tested on: P.a. 15442; test: MIC in solution; details: Pseudomonas aeruginosa
Description: as §6

[15] = tested on: S.e. 13311; test: MIC in solution; details: Salmonella enterica
Description: as §6

[16] = tested on: S.a. 6538; test: MIC in solution; details: Staphylococcus aureus
Description: as §6

[17] = tested on: E.c. 10536; test: MIC in solution; details: Escherichia coli
Description: as §6

[18] = tested on: E.f. 29212; test: MIC in solution; details: Enterococcus faecalis
Description: as §6

With `CCC/C=C/C=O` [Composition A, trans-2-hexenal] as the compound, how does the “Vapor Phase Activity Against Bacteria” value [1] read?
The value was “+++”.

And the “Vapor Phase Activity Against Bacteria” value [2]?
The value was “+++”.

What about the “Vapor Phase Activity Against Bacteria” value [3] of the same compound?
The value was “+++”.

And the “Vapor Phase Activity Against Bacteria” value [4]?
The value was “+++”.

What about the “Vapor Phase Activity Against Bacteria” value [5] of the same compound?
The value was “+++”.

And the “Vapor Phase Activity Against Bacteria” value [6]?
The value was “+”.

For `CCCC/C=C/C=O` [Composition B, trans-2-heptenal], which “Vapor Phase Activity Against Bacteria” value [1] is on record?
Its value is “+++”.

And the “Vapor Phase Activity Against Bacteria” value [2]?
The value was “+++”.

And the “Vapor Phase Activity Against Bacteria” value [3]?
Its value is “+++”.

What about the “Vapor Phase Activity Against Bacteria” value [4] of the same compound?
Its value is “+++”.

What about the “Vapor Phase Activity Against Bacteria” value [5] of the same compound?
The value was “+”.

What about the “Vapor Phase Activity Against Bacteria” value [6] of the same compound?
Its value is “+++”.

`CC/C=C/C=C/C=O` [Composition C, 2,4-heptadienal] was tested. Which “Vapor Phase Activity Against Bacteria” value [1] did it give?
The value was “+++”.

What about the “Vapor Phase Activity Against Bacteria” value [2] of the same compound?
The value was “+++”.

What about the “Vapor Phase Activity Against Bacteria” value [3] of the same compound?
Its value is “+++”.

And the “Vapor Phase Activity Against Bacteria” value [4]?
Its value is “+++”.

What about the “Vapor Phase Activity Against Bacteria” value [5] of the same compound?
The value was “+++”.

And the “Vapor Phase Activity Against Bacteria” value [6]?
The value was “+”.

How did the “Vapor Phase Activity Against Bacteria” value [1] turn out when `CC/C=C/C=C/C=O` [Composition E, 2,4-heptadienal] was run?
The value was “++”.

And the “Vapor Phase Activity Against Bacteria” value [2]?
The value was “+++”.

And the “Vapor Phase Activity Against Bacteria” value [3]?
Its value is “+++”.

What about the “Vapor Phase Activity Against Bacteria” value [4] of the same compound?
Its value is “+++”.

And the “Vapor Phase Activity Against Bacteria” value [5]?
The value was “++”.

What about the “Vapor Phase Activity Against Bacteria” value [6] of the same compound?
Its value is “+”.

Which results are given for `CCCCCCCC=O` [octanal]?
MIC [7]: 42.4 µg/mL; MIC [8]: 42.4 µg/mL; MIC [9]: 21.1 µg/mL; MIC [10]: 84.8 µg/mL; MIC [11]: 7.8 µg/mL; MIC [12]: 42.4 µg/mL; MIC [13]: > 125 µg/mL; MIC [14]: > 125 µg/mL; MIC [15]: > 125 µg/mL; MIC [16]: > 125 µg/mL; MIC [17]: > 125 µg/mL; MIC [18]: > 125 µg/mL

Which MIC [7] does the source give for `CCCCCCC/C=C/C=O` [trans-2-decenal] here?
Its MIC is 6.4 µg/mL.

And the MIC [10]?
The MIC was 43 µg/mL.

And the MIC [12]?
The MIC was 6.4 µg/mL.

For `CCCC/C=C/C=O` [trans-2-heptenal], which MIC [7] is on record?
The MIC was 6.4 µg/mL.

What about the MIC [10] of the same compound?
The MIC was 25.6 µg/mL.

And the MIC [12]?
The MIC was 12.8 µg/mL.

What does the source list for `CCC/C=C/C=O` [trans-2-hexenal]?
MIC [7]: 6.4 µg/mL; MIC [10]: 12.8 µg/mL; MIC [12]: 12.8 µg/mL

Which results are given for `CCCCCC/C=C/C=O` [trans-2-nonenal]?
MIC [7]: 6.4 µg/mL; MIC [10]: 43 µg/mL; MIC [12]: 6.4 µg/mL

Which MIC [7] does the source give for `CCCCC/C=C/C=O` [trans-2-octenal] here?
The MIC was 43 µg/mL.

And the MIC [8]?
Its MIC is 43 µg/mL.

What about the MIC [9] of the same compound?
The MIC was 43 µg/mL.

And the MIC [10]?
The MIC was 43 µg/mL.

And the MIC [11]?
The MIC was 3.6 µg/mL.

And the MIC [12]?
The MIC was 25.6 µg/mL.

What about the MIC [13] of the same compound?
The MIC was over 125 µg/mL.

What about the MIC [14] of the same compound?
The MIC was over 125 µg/mL.

What about the MIC [15] of the same compound?
Its MIC is over 125 µg/mL.

And the MIC [16]?
Its MIC is over 125 µg/mL.

What about the MIC [17] of the same compound?
The MIC was over 125 µg/mL.

What about the MIC [18] of the same compound?
Its MIC is over 125 µg/mL.

What does the source list for `CCCCCCCC/C=C/C=O` [trans-2-undecenal]?
MIC [7]: 12.8 µg/mL; MIC [10]: 43 µg/mL; MIC [12]: 12.8 µg/mL
